Earlier results, collected in publication PMC11904481 (ESMO Open, 2025).
Where “and” joins values, the source holds several entries; their conditions need not be identical. Equal values may be shown once.

Tested on: patients
Details: cited from earlier work; for diarrhea / nausea: patients treated with oral ERK inhibitor
[1] = ocular TEAE, oral ERK inhibitor

Compound | diarrhea | nausea | blurred vision [1] | retinopathy [1] | patients with dose reductions due to toxicity (phase I clinical trial, oral) | oropharyngeal pain (oral ERK inhibitor)
Cc1cnc(NC2CCOCC2)nc1-n1cnc(C(=O)N[C@H](CN)c2cc(F)cc(Cl)c2)c1 [ASN007] | 30% | 30% | – | – | – | –
Cn1nccc1Nc1nccc(-c2cc3c(s2)C(C)(C)N(CCN2CCOCC2)C3=O)n1 [LY3214996] | – | – | 15% | – | – | –
Cn1nccc1Nc1nccc(-c2ccn([C@H](CO)c3ccc(Cl)c(F)c3)c(=O)c2)n1 [GDC-0994, (S)-1-(1-(4-chloro-3-fluorophenyl)-2-hydroxyethyl)-4-(2-((1-methyl-1H-pyrazol-5-yl)amino)pyrimidin-4-yl)pyridin-2(1H)-one] | 49% | 32% | 13% | – | – | –
CC(C)Nc1cc(-c2c[nH]c(C(=O)N[C@H](CO)c3cccc(Cl)c3)c2)c(Cl)cn1 [ulixertinib] | > 40% and 48% | 42% | – | 14% | 32% | –
CS[C@@]1(C(=O)Nc2ccc3[nH]nc(-c4ccc(OC(C)C)nc4)c3c2)CCN(CC(=O)N2CC=C(c3ccc(-c4ncn(C)n4)cc3)CC2)C1 [MK-8353] | > 40% and 44% | 28% | 8% | – | – | 8%
